Reference: PMC10324454, “Novel pyrimidine Schiff bases and their selenium-containing nanoparticles as dual inhibitors of CDK1 and tubulin polymerase: design, synthesis, anti-proliferative evaluation, and molecular modelling” (Journal of Enzyme Inhibition and Medicinal Chemistry, 2023)
One block for each compound: values may come before it.

Legend:
HepG-2 = assay: cells; set-up: MTT cytotoxicity assay, formazan absorbance, viability IC50; conditions: Homo sapiens, HepG2
Protocol: (§1) The cytotoxic activity of all synthesised compounds, both normal and nano-sized forms, was evaluated against three cancer cell lines, breast cancer (MCF-7), hepatocellular carcinoma (HepG-2), and non-small cell lung cancer (A549), while the normal Vero cell line was performed for the promising compounds 4, 6 and their nano-sized 4NPs, 6NPs, using the MTT assay according to the literature. The cell lines were obtained from ATCC (American Type Culture Collection). 5-Fluorouracil was used as a control. It is worth noting that freshly prepared nanoparticle-based compounds were used in each of the conducted experiments. The protocol of the MTT assay was illustrated in detail in the Supplementary File. S3 1.1. Biological activity 1.1.1. In vitro cytotoxicity assay The cytotoxic activity of all synthesized compounds, both normal and nano-sized forms, was evaluated against three cancer cell lines, breast cancer (MCF-7), hepatocellular carcinoma (HepG-2), and non-small cell lung cancer (A549), while the normal Vero cell line was performed for the promising compounds 4, 6 and their nano-sized 4NPs, 6NPs, using the MTT assay according to the literature. The cell lines were obtained from ATCC (American Type Culture Collection). 5-Fluorouracil was used as a reference drug. The cytotoxic activities of the examined compounds were quantified by inoculating a 96-well tissue culture plate with 1 X 10 5 cells / mL (100 uL/well) and incubating it at 37°C for 24 hours to develop a complete monolayer sheet. After forming a confluent sheet of cells, the growth medium was decanted from 96-well microtiter plates, and the cell monolayer was washed twice with wash media. Two-fold dilutions of tested samples were made in RPMI medium with 2% serum (maintenance medium), and 0.1 mL of each dilution was tested in different wells, with three wells serving as controls and receiving only maintenance medium. Following that, the plate was incubated at 37°C and examined. Cells were investigated for any physical signs of toxicity, such as partial or complete monolayer loss, rounding, shrinkage, or cell granulation. MTT solution was prepared (5mg/ml in PBS) (BIO BASIC CANADA INC), and 20 uL MTT solution was added to each well. After 5 minutes on a shaking table at 150 rpm to thoroughly mix the MTT into the media, it was incubated (37 ° C, 5% CO2) for 4 hours to allow the MTT to be metabolized. Formazan (MTT metabolic product) was resuspended in 200 uL DMSO and shaken at 150 rpm for 5 minutes to t

A549 = assay: cells; set-up: MTT cytotoxicity assay, formazan absorbance, viability IC50; conditions: Homo sapiens
Protocol: as §1

MCF-7 = assay: cells; set-up: MTT cytotoxicity assay, formazan absorbance, viability IC50; conditions: Homo sapiens, MCF7
Protocol: as §1

in vitro = assay: in vitro; set-up: MTT cytotoxicity assay, formazan absorbance, viability IC50; conditions: african green monkey, vero cells; read-out: IC50 Vero
Protocol: The cytotoxic activity of all synthesised compounds, both normal and nano-sized forms, was evaluated against three cancer cell lines, breast cancer (MCF-7), hepatocellular carcinoma (HepG-2), and non-small cell lung cancer (A549), while the normal Vero cell line was performed for the promising compounds 4, 6 and their nano-sized 4NPs, 6NPs, using the MTT assay according to the literature. The cell lines were obtained from ATCC (American Type Culture Collection). 5-Fluorouracil was used as a control. It is worth noting that freshly prepared nanoparticle-based compounds were used in each of the conducted experiments. The protocol of the MTT assay was illustrated in detail in the Supplementary File. S3 1.1. Biological activity 1.1.1. In vitro cytotoxicity assay The cytotoxic activity of all synthesized compounds, both normal and nano-sized forms, was evaluated against three cancer cell lines, breast cancer (MCF-7), hepatocellular carcinoma (HepG-2), and non-small cell lung cancer (A549), while the normal Vero cell line was performed for the promising compounds 4, 6 and their nano-sized 4NPs, 6NPs, using the MTT assay according to the literature. […] The cytotoxic activities of the examined compounds were quantified by inoculating a 96-well tissue culture plate with 1 X 10 5 cells / mL (100 uL/well) and incubating it at 37°C for 24 hours to develop a complete monolayer sheet. […]

CDK1 = target: T1, CDK1 (Homo sapiens, UniProt P06493); assay: in vitro CDK1/cyclin B1 kinase inhibition assay (kit); assay type: biochemical; conditions: read-out: CDK1 (IC50 μM ± SD)
T1 construct: with cyclin B1
T1 sequence (P06493 whole entry): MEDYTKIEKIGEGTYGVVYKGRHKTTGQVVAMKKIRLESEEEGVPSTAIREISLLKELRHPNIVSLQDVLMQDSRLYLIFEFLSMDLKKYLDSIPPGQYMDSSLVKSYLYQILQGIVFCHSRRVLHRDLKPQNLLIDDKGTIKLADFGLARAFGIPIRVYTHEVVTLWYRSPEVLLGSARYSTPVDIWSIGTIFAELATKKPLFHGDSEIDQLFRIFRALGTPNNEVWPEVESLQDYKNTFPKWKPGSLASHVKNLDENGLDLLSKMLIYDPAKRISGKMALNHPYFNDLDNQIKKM
T1 sequence (P14635 whole entry partner): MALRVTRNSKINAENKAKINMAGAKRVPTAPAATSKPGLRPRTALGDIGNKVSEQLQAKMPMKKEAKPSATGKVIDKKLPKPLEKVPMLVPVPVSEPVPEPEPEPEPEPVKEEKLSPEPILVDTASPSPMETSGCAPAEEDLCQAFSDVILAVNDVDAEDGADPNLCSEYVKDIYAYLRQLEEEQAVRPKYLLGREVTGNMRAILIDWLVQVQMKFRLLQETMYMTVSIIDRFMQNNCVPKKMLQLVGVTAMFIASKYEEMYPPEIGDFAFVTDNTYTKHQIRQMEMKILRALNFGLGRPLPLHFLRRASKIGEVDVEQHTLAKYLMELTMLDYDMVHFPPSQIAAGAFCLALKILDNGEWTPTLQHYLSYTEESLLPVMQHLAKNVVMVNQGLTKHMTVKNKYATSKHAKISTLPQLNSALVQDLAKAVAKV

[1] = target: T2, tubulin (tubulin polymerase, colchicine binding site); assay: colchicine-tubulin competition-binding assay; conditions: read-out: Tubulin polymerase (CBS) (IC50 μM ± SD)
T2 construct: with alpha/beta-tubulin heterodimer

SMILES: CCn1c(N)c(/N=C/c2ccccc2[N+](=O)[O-])c(=O)[nH]c1=O [compound 8, (E)-6-amino-1-ethyl-5-((2-nitrobenzylidene)amino)pyrimidine-2,4(1H,3H)-dione]
IC50 (HepG-2): 2.1 ± 0.09 µM

SMILES: O=c1[nH]cc(F)c(=O)[nH]1 [5-FU, 5-fluorouracil]
IC50 (A549): 0.76 µM
IC50 (HepG-2): 1.36 µM
IC50 (MCF-7): 1.82 µM
CC50 (in vitro): 3.04 µM

IC50 (CDK1): 2.18 ± 0.06 µM
IC50 [1]: 1.93 ± 0.119 µM
SMILES: CN(C)c1ccc(/C=N/c2c(N)n(C)c(=O)[nH]c2=O)cc1 [compound 4, (E)-6-amino-5-((4-(dimethylamino)benzylidene)amino)-1-methylpyrimidine-2,4(1H,3H)-dione]
IC50 (HepG-2): 1.07 ± 0.03 µM

SMILES: CCn1c(N)c(/N=C/c2ccc(Br)cc2)c(=O)[nH]c1=O [compound 9, (E)-6-amino-5-((4-bromobenzylidene)amino)-1-ethylpyrimidine-2,4(1H,3H)-dione]
IC50 (HepG-2): 3.47 ± 0.09 µM

SMILES: CCn1c(N)c(/N=C/c2ccc([N+](=O)[O-])cc2)c(=O)[nH]c1=O [compound 7, (E)-6-amino-1-ethyl-5-((4-nitrobenzylidene)amino)pyrimidine-2,4(1H,3H)-dione]
IC50 (HepG-2): 3.38 ± 0.11 µM

SMILES: Cn1c(N)c(/N=C/c2ccc(O)cc2)c(=O)[nH]c1=O [compound 5, (E)-6-amino-5-((4-hydroxybenzylidene)amino)-1-methylpyrimidine-2,4(1H,3H)-dione]
IC50 (HepG-2): 4.07 ± 0.08 µM

SMILES: CCn1c(N)c(/N=C/c2ccc(O)cc2)c(=O)[nH]c1=O [compound 6, (E)-6-amino-1-ethyl-5-((4-hydroxybenzylidene)amino)pyrimidine-2,4(1H,3H)-dione]
IC50 (HepG-2): 1.97 ± 0.05 µM
